ChEMBL document CHEMBL3352235, “Design, synthesis and biological evaluation of 17-arylmethylamine-17-demethoxygeldanamycin derivatives as potent Hsp90 inhibitors” (Eur J Med Chem, 2014)

Experiments:
[1] = test system: MDA-MB-231; assay: cells; details: Homo sapiens, MDA-MB-231, 72 h
Description: Cytotoxicity against human MDA-MB-231 cells after 72 hrs by MTT assay

[2] = test system: LNCaP; assay: cells; details: Homo sapiens, 72 h
Description: Cytotoxicity against human LNCAP cells after 72 hrs by MTT assay

[3] = test system: Mus musculus; assay: Hepatotoxicity in Kunming mouse assessed as serum ALT level at 10 mg/kg, iv (reference value: 60.7 +/- 6.9 U/L); assay type: toxicity, organism-based; parameters: dose 10 mg/kg, route intravenous; details: in vivo
[4] = target: Heat shock protein HSP 90-alpha (Homo sapiens, UniProt P07900); assay: Displacement of GA-FITC from human recombinant HSP90alpha ATP-binding site by fluorescence polarization assay
[5] = test system: MDA-MB-231; assay: Antitumor activity against human MDA-MB-231 cells xenografted in BALB/c mouse assessed as reduction in tumor weight at 10 mg/kg, iv dosed every 3 days for 15 days; assay type: functional; details: read-out: GI
[6] = test system: MDA-MB-231; assay: Antitumor activity against human MDA-MB-231 cells xenografted in BALB/c mouse assessed as tumor volume at 10 mg/kg, iv dosed every 3 days for 15 days relative to untreated control; assay type: functional
[7] = test system: Mus musculus; assay: Hepatotoxicity in Kunming mouse assessed as serum AST level at 10 mg/kg, iv (reference value: 197.2 +/- 11.2 U/L); assay type: toxicity, organism-based; parameters: dose 10 mg/kg, route intravenous; details: in vivo

COc1cc(CNC2=C3C[C@@H](C)C[C@H](OC)[C@H](O)[C@@H](C)/C=C(\C)[C@H](OC(N)=O)[C@@H](OC)/C=C\C=C(/C)C(=O)NC(=CC2=O)C3=O)cc(OC)c1OC
IC50 [1]: 640 nM
IC50 [2]: 2450 nM

CO[C@H]1/C=C\C=C(/C)C(=O)NC2=CC(=O)C(NCc3cccc(N)c3)=C(C[C@@H](C)C[C@H](OC)[C@H](O)[C@@H](C)/C=C(\C)[C@@H]1OC(N)=O)C2=O
IC50 [1]: 560 nM
IC50 [2]: 180 nM

CO[C@H]1/C=C\C=C(/C)C(=O)NC2=CC(=O)C(NCc3cc(F)cc(F)c3)=C(C[C@@H](C)C[C@H](OC)[C@H](O)[C@@H](C)/C=C(\C)[C@@H]1OC(N)=O)C2=O
IC50 [1]: 350 nM
IC50 [2]: 1980 nM

CO[C@H]1/C=C\C=C(/C)C(=O)NC2=CC(=O)C(NCc3cccc([N+](=O)[O-])c3)=C(C[C@@H](C)C[C@H](OC)[C@H](O)[C@@H](C)/C=C(\C)[C@@H]1OC(N)=O)C2=O
IC50 [1]: 690 nM
IC50 [2]: 340 nM

CO[C@H]1/C=C\C=C(/C)C(=O)NC2=CC(=O)C(NCc3ccc(I)cc3)=C(C[C@@H](C)C[C@H](OC)[C@H](O)[C@@H](C)/C=C(\C)[C@@H]1OC(N)=O)C2=O
IC50 [1]: 360 nM
IC50 [2]: 1360 nM

COc1ccc(CNC2=C3C[C@@H](C)C[C@H](OC)[C@H](O)[C@@H](C)/C=C(\C)[C@H](OC(N)=O)[C@@H](OC)/C=C\C=C(/C)C(=O)NC(=CC2=O)C3=O)c(OC)c1
IC50 [1]: 330 nM
IC50 [2]: 3110 nM

CO[C@H]1/C=C\C=C(/C)C(=O)NC2=CC(=O)C(NCc3ccc(Br)cc3)=C(C[C@@H](C)C[C@H](OC)[C@H](O)[C@@H](C)/C=C(\C)[C@@H]1OC(N)=O)C2=O
IC50 [1]: 240 nM
IC50 [2]: > 10000 nM

CO[C@H]1/C=C\C=C(/C)C(=O)NC2=CC(=O)C(NCc3ccc(C#N)cc3)=C(C[C@@H](C)C[C@H](OC)[C@H](O)[C@@H](C)/C=C(\C)[C@@H]1OC(N)=O)C2=O
IC50 [1]: 250 nM
IC50 [2]: 480 nM

CO[C@H]1/C=C\C=C(/C)C(=O)NC2=CC(=O)C(NCc3ccc(C(F)(F)F)nc3)=C(C[C@@H](C)C[C@H](OC)[C@H](O)[C@@H](C)/C=C(\C)[C@@H]1OC(N)=O)C2=O
Activity [3]: 61 U/L
IC50 [1]: 100 nM
IC50 [4]: 430 nM
inhibition in vivo at 10 mg/kg [5]: 63%
IC50 [2]: 350 nM
T/C [6]: 31%
Activity [7]: 164.1 U/L

CO[C@H]1/C=C\C=C(/C)C(=O)NC2=CC(=O)C(NCc3ccc(S(C)(=O)=O)cc3)=C(C[C@@H](C)C[C@H](OC)[C@H](O)[C@@H](C)/C=C(\C)[C@@H]1OC(N)=O)C2=O
IC50 [1]: 350 nM
IC50 [2]: 850 nM

COc1cc(CNC2=C3C[C@@H](C)C[C@H](OC)[C@H](O)[C@@H](C)/C=C(\C)[C@H](OC(N)=O)[C@@H](OC)/C=C\C=C(/C)C(=O)NC(=CC2=O)C3=O)ccc1O
IC50 [1]: 160 nM
IC50 [2]: 140 nM

COc1ccccc1CNC1=C2C[C@@H](C)C[C@H](OC)[C@H](O)[C@@H](C)/C=C(\C)[C@H](OC(N)=O)[C@@H](OC)/C=C\C=C(/C)C(=O)NC(=CC1=O)C2=O
IC50 [1]: 460 nM
IC50 [2]: > 10000 nM

COC(=O)c1ccc(CNC2=C3C[C@@H](C)C[C@H](OC)[C@H](O)[C@@H](C)/C=C(\C)[C@H](OC(N)=O)[C@@H](OC)/C=C\C=C(/C)C(=O)NC(=CC2=O)C3=O)cc1
IC50 [1]: 130 nM
IC50 [2]: 1030 nM

CO[C@H]1/C=C\C=C(/C)C(=O)NC2=CC(=O)C(NCc3ccc(F)c(F)c3)=C(C[C@@H](C)C[C@H](OC)[C@H](O)[C@@H](C)/C=C(\C)[C@@H]1OC(N)=O)C2=O
IC50 [1]: 630 nM
IC50 [2]: > 10000 nM

COC1=C2C[C@@H](C)C[C@H](OC)[C@H](O)[C@@H](C)/C=C(\C)[C@H](OC(N)=O)[C@@H](OC)/C=C\C=C(/C)C(=O)NC(=CC1=O)C2=O [GELDANAMYCIN]
Activity [3]: 273 U/L
Activity [7]: 317.2 U/L

CO[C@H]1/C=C\C=C(/C)C(=O)NC2=CC(=O)C(NCc3ccccc3C)=C(C[C@@H](C)C[C@H](OC)[C@H](O)[C@@H](C)/C=C(\C)[C@@H]1OC(N)=O)C2=O
IC50 [1]: 1670 nM
IC50 [2]: 5700 nM

CO[C@H]1/C=C\C=C(/C)C(=O)NC2=CC(=O)C(NCc3ccc(F)cc3)=C(C[C@@H](C)C[C@H](OC)[C@H](O)[C@@H](C)/C=C(\C)[C@@H]1OC(N)=O)C2=O
IC50 [1]: 630 nM
IC50 [2]: 2280 nM

CCOC(=O)c1ccc(CNC2=C3C[C@@H](C)C[C@H](OC)[C@H](O)[C@@H](C)/C=C(\C)[C@H](OC(N)=O)[C@@H](OC)/C=C\C=C(/C)C(=O)NC(=CC2=O)C3=O)cc1
IC50 [1]: 130 nM
IC50 [2]: 1340 nM

COc1ccc(CNC2=C3C[C@@H](C)C[C@H](OC)[C@H](O)[C@@H](C)/C=C(\C)[C@H](OC(N)=O)[C@@H](OC)/C=C\C=C(/C)C(=O)NC(=CC2=O)C3=O)cc1OC
IC50 [1]: 360 nM
IC50 [2]: > 10000 nM

CO[C@H]1/C=C\C=C(/C)C(=O)NC2=CC(=O)C(NCc3ccc(C)cc3)=C(C[C@@H](C)C[C@H](OC)[C@H](O)[C@@H](C)/C=C(\C)[C@@H]1OC(N)=O)C2=O
IC50 [1]: 490 nM
IC50 [2]: > 10000 nM

COc1ccc(CNC2=C3C[C@@H](C)C[C@H](OC)[C@H](O)[C@@H](C)/C=C(\C)[C@H](OC(N)=O)[C@@H](OC)/C=C\C=C(/C)C(=O)NC(=CC2=O)C3=O)cc1
IC50 [1]: 180 nM
IC50 [2]: 7810 nM

CO[C@H]1/C=C\C=C(/C)C(=O)NC2=CC(=O)C(NCc3cncn3C)=C(C[C@@H](C)C[C@H](OC)[C@H](O)[C@@H](C)/C=C(\C)[C@@H]1OC(N)=O)C2=O
IC50 [1]: 410 nM
IC50 [2]: 440 nM

CO[C@H]1/C=C\C=C(/C)C(=O)NC2=CC(=O)C(NCc3cccc(C#N)c3)=C(C[C@@H](C)C[C@H](OC)[C@H](O)[C@@H](C)/C=C(\C)[C@@H]1OC(N)=O)C2=O
IC50 [1]: 450 nM
IC50 [2]: 1800 nM

CO[C@H]1/C=C\C=C(/C)C(=O)NC2=CC(=O)C(NCc3ccsc3)=C(C[C@@H](C)C[C@H](OC)[C@H](O)[C@@H](C)/C=C(\C)[C@@H]1OC(N)=O)C2=O
IC50 [1]: 400 nM
IC50 [2]: 680 nM

CO[C@H]1/C=C\C=C(/C)C(=O)NC2=CC(=O)C(NCc3cccc(Cl)c3)=C(C[C@@H](C)C[C@H](OC)[C@H](O)[C@@H](C)/C=C(\C)[C@@H]1OC(N)=O)C2=O
IC50 [1]: 380 nM
IC50 [2]: 8500 nM

CO[C@H]1/C=C\C=C(/C)C(=O)NC2=CC(=O)C(NCc3ccc(O)cc3)=C(C[C@@H](C)C[C@H](OC)[C@H](O)[C@@H](C)/C=C(\C)[C@@H]1OC(N)=O)C2=O
IC50 [1]: 170 nM
IC50 [2]: 8480 nM

CO[C@H]1/C=C\C=C(/C)C(=O)NC2=CC(=O)C(NCc3ccccc3Cl)=C(C[C@@H](C)C[C@H](OC)[C@H](O)[C@@H](C)/C=C(\C)[C@@H]1OC(N)=O)C2=O
IC50 [1]: 650 nM
IC50 [2]: 410 nM

CO[C@H]1/C=C\C=C(/C)C(=O)NC2=CC(=O)C(NCc3ccc(OC(F)(F)F)cc3)=C(C[C@@H](C)C[C@H](OC)[C@H](O)[C@@H](C)/C=C(\C)[C@@H]1OC(N)=O)C2=O
IC50 [1]: 180 nM
IC50 [2]: 570 nM

COc1cccc(CNC2=C3C[C@@H](C)C[C@H](OC)[C@H](O)[C@@H](C)/C=C(\C)[C@H](OC(N)=O)[C@@H](OC)/C=C\C=C(/C)C(=O)NC(=CC2=O)C3=O)c1
IC50 [1]: 880 nM
IC50 [2]: 2670 nM

CO[C@H]1/C=C\C=C(/C)C(=O)NC2=CC(=O)C(NCc3ccc(N)cc3)=C(C[C@@H](C)C[C@H](OC)[C@H](O)[C@@H](C)/C=C(\C)[C@@H]1OC(N)=O)C2=O
Activity [3]: 74.9 U/L
IC50 [1]: 170 nM
IC50 [4]: 890 nM
inhibition in vivo at 10 mg/kg [5]: 46%
IC50 [2]: 50 nM
T/C [6]: 55%
Activity [7]: 215.8 U/L

CO[C@H]1/C=C\C=C(/C)C(=O)NC2=CC(=O)C(NCc3cccc(C)c3)=C(C[C@@H](C)C[C@H](OC)[C@H](O)[C@@H](C)/C=C(\C)[C@@H]1OC(N)=O)C2=O
IC50 [1]: 800 nM
IC50 [2]: 5230 nM

CO[C@H]1/C=C\C=C(/C)C(=O)NC2=CC(=O)C(NCc3ccc(S(N)(=O)=O)cc3)=C(C[C@@H](C)C[C@H](OC)[C@H](O)[C@@H](C)/C=C(\C)[C@@H]1OC(N)=O)C2=O
IC50 [1]: 1060 nM
IC50 [2]: 960 nM

C=CCNC1=C2C[C@@H](C)C[C@H](OC)[C@H](O)[C@@H](C)/C=C(\C)[C@H](OC(N)=O)[C@@H](OC)/C=C\C=C(/C)C(=O)NC(=CC1=O)C2=O [TANESPIMYCIN]
Activity [3]: 66.6 U/L
inhibition in vivo at 10 mg/kg [5]: 57%
IC50 [2]: 160 nM
T/C [6]: 35%
Activity [7]: 237.4 U/L

CO[C@H]1/C=C\C=C(/C)C(=O)NC2=CC(=O)C(NCc3ccc(Cl)cc3)=C(C[C@@H](C)C[C@H](OC)[C@H](O)[C@@H](C)/C=C(\C)[C@@H]1OC(N)=O)C2=O
IC50 [1]: 460 nM
IC50 [2]: 770 nM
